Source: patent US20190119284A1, “ErbB Inhibitors and Uses Thereof” (The Regents of the University of California, priority 2016, published 2019)
Read-outs that look alike come from different tables or passages of the source.

Experiments:
[1] = target: T1, NEK2 (Homo sapiens, UniProt P51955); assay: Nanosyn in vitro kinase profiling: NEK2; type: biochemical; details: for inhibition at 1 µM: compound at 1 μM
T1 sequence (P51955 1-445): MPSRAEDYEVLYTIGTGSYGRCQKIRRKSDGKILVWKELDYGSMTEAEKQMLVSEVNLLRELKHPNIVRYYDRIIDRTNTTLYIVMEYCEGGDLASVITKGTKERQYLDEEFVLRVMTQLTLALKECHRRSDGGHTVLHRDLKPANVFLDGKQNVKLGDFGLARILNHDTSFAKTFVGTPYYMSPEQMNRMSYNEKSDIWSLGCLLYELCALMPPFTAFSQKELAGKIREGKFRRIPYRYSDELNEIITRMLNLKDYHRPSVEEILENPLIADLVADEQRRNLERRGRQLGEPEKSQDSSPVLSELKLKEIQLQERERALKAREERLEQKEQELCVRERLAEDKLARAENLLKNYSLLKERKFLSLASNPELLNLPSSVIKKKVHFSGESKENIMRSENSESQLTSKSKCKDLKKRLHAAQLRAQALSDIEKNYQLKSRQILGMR
Procedure: (§1) This was confirmed by in vitro profiling against a panel of kinases, with compound 2 only showing potent inhibition of EGFR and Ab1 (Table 2).
(§2) In vitro Kinome Screen. In vitro profiling of compound 2 at 100 nM was conducted by Nanosyn.

[2] = target: ROCK1 (Homo sapiens, UniProt Q13464); assay: Nanosyn in vitro kinase profiling: ROCK1; type: biochemical; details: for inhibition at 1 µM: compound at 1 μM
Procedure: as §1, §2

[3] = target: T2, IKK-BETA (Homo sapiens, UniProt O14920); assay: Nanosyn in vitro kinase profiling: IKK-BETA; type: biochemical; details: for inhibition at 1 µM: compound at 1 μM
T2 sequence (O14920 1-756): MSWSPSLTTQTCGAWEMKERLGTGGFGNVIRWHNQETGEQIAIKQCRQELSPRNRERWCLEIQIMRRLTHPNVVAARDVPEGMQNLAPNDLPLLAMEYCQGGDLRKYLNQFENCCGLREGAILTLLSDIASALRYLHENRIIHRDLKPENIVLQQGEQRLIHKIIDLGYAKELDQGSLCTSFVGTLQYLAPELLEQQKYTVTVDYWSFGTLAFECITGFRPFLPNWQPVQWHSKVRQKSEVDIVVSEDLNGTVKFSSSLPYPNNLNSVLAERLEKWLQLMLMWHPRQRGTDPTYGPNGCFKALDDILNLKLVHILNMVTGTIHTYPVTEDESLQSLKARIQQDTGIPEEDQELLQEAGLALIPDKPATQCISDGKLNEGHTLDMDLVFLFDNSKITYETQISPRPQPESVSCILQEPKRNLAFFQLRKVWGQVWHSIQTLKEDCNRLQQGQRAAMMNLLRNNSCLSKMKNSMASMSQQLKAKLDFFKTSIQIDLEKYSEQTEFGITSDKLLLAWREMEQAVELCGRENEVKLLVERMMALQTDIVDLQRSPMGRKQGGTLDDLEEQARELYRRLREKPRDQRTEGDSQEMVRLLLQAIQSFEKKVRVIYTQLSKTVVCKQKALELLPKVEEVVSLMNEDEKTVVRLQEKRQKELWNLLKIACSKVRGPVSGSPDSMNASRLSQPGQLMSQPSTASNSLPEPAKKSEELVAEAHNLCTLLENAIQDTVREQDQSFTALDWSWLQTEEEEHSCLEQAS
Procedure: as §1, §2

[4] = target: KDR (Homo sapiens, UniProt P35968); assay: Nanosyn in vitro kinase profiling: KDR; type: biochemical; details: for inhibition at 1 µM: compound at 1 μM
Procedure: as §1, §2

[5] = target: DAPK1 (Homo sapiens, UniProt P53355); assay: Nanosyn in vitro kinase profiling: DAPK1; type: biochemical; details: for inhibition at 1 µM: compound at 1 μM
Procedure: as §1, §2

[6] = target: CK1-EPSILON (Homo sapiens, UniProt P49674); assay: Nanosyn in vitro kinase profiling: CK1-EPSILON; type: biochemical; details: for inhibition at 1 µM: compound at 1 μM
Procedure: as §1, §2

[7] = target: T3, 2YF-YVMA/3wt + NRG Ba/F3 cells (Homo sapiens, UniProt P04626, DUP772-775/Y1005F/Y1023F/Y1112F/Y1127F/Y1139F/Y1196F/Y1221F/Y1222F/Y1248F, cells depend on it); assay: Ba/F3 proliferation assay, 2YF-YVMA/3wt + NRG; type: cell-based
T3 construct: reported HER2 oncogenic mutants in the HER2YF construct
Procedure: For the 2YF/3wt cells, the parental cells were first transduced with HER3 according to the protocol above and were then spun down at 500×g for 5 min and re-suspended in media supplemented with 10 ng/mL IL-3 and 3 μg/mL puromycin (Invitrogen). Cells were maintained in these conditions for seven days, passaging as required. After seven days the cells were spun down, washed with fresh media, and then used for a subsequent round of transduction according to the protocol above with HER2YF virus. […] The cells were maintained in these conditions for seven days, passaging as required. After seven days the cells were spun down, washed with fresh media, and then suspended in media supplemented with 10 ng/mL of NRG. Cells were maintained in these conditions for seven days to select for a NRG dependent population of 2YF/3wt Ba/F3 cells that were then maintained as described above. The same protocol was used for the 2YF-L755S/3wt, 2YF-YVMA/3wt, and 2YF-VC/3wt cell lines using the indicated constructs.
Proliferation Assays. […] The following day media was changed to fresh media that contained either DMSO or the indicated concentration of drug plus NRG (50 ng/mL final concentration) as indicated. […] For all normalized assays, proliferation was normalized to the DMSO control condition. […]

Chain of KDR (P35968 20-1356): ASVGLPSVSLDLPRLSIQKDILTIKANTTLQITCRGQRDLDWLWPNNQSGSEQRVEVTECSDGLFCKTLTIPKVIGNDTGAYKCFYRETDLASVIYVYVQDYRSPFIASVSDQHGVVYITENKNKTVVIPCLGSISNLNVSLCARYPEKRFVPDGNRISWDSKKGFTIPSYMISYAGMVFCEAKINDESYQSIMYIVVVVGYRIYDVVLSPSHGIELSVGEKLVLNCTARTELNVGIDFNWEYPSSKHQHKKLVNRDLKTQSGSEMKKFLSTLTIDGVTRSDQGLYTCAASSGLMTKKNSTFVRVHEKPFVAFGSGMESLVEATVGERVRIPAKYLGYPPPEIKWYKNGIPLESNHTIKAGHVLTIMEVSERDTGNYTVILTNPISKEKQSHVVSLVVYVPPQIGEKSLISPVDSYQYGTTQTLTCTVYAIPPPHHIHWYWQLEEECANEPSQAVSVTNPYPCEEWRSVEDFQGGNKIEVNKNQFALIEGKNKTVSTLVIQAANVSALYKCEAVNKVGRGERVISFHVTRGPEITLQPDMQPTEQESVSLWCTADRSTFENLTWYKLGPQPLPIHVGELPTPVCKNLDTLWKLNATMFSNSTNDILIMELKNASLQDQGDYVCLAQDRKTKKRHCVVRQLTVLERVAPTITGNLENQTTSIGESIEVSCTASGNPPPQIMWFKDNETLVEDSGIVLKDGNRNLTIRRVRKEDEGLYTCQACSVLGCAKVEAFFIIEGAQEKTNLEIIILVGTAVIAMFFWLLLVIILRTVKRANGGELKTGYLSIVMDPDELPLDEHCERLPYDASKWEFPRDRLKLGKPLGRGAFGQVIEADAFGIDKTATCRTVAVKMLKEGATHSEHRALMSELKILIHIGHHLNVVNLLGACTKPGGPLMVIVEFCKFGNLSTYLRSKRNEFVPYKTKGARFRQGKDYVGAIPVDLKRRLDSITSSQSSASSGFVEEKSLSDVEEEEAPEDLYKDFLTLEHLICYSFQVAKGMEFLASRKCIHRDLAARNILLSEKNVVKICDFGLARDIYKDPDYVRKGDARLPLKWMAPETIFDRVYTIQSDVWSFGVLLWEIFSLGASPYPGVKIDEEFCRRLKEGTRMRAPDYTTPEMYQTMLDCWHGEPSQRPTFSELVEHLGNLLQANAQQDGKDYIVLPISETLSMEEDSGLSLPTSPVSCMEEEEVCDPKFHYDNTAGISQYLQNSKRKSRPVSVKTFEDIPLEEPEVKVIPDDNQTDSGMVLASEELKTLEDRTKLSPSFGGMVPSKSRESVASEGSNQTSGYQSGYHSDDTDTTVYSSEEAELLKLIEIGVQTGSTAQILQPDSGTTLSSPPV
Chain of ROCK1 (Q13464 whole entry, species assumed): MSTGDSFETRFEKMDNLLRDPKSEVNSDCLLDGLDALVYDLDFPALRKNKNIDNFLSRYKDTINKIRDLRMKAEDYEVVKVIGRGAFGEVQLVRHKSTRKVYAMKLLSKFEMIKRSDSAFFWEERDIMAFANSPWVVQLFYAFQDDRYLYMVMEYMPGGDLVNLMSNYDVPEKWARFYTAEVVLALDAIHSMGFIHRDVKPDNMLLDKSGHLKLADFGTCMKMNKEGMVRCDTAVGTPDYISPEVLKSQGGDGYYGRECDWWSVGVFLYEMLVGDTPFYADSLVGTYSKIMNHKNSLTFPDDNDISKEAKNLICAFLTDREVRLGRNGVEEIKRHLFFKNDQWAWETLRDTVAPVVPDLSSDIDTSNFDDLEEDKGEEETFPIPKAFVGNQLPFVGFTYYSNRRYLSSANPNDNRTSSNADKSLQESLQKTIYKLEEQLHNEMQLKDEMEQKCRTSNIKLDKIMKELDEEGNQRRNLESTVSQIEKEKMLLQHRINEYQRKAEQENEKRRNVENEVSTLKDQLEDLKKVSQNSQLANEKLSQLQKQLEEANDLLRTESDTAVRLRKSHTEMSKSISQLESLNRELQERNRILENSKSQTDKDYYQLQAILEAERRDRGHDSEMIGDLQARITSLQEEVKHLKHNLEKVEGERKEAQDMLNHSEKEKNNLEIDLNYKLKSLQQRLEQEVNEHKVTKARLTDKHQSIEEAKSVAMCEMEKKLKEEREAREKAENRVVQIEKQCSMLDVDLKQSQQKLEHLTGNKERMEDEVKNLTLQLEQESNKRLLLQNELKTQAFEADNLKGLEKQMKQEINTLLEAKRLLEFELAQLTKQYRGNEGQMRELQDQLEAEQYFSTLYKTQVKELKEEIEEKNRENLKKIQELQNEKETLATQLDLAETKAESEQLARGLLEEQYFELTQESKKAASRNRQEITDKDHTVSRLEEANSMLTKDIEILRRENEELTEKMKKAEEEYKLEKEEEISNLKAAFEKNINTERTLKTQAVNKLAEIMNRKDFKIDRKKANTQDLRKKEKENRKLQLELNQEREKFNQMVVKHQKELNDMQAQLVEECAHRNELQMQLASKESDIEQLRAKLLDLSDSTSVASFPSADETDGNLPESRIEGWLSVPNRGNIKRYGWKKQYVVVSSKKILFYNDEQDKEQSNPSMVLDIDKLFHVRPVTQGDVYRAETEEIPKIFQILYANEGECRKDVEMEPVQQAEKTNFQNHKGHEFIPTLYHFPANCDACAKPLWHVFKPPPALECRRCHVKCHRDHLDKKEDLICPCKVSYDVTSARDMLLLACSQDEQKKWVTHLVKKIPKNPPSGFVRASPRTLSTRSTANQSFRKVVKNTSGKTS
Chain of CK1-EPSILON (P49674 whole entry): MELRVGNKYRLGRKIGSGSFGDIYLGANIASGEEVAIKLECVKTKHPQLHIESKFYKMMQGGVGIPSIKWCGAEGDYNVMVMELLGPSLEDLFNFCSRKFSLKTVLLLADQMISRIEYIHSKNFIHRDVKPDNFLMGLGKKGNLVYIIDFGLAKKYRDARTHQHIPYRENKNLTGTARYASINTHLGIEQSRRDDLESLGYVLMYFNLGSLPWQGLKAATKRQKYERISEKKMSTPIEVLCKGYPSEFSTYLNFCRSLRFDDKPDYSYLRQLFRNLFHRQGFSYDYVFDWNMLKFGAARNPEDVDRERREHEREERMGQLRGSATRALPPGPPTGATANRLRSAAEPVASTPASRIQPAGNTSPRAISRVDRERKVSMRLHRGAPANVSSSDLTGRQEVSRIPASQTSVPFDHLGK
Chain of DAPK1 (P53355 whole entry, species assumed): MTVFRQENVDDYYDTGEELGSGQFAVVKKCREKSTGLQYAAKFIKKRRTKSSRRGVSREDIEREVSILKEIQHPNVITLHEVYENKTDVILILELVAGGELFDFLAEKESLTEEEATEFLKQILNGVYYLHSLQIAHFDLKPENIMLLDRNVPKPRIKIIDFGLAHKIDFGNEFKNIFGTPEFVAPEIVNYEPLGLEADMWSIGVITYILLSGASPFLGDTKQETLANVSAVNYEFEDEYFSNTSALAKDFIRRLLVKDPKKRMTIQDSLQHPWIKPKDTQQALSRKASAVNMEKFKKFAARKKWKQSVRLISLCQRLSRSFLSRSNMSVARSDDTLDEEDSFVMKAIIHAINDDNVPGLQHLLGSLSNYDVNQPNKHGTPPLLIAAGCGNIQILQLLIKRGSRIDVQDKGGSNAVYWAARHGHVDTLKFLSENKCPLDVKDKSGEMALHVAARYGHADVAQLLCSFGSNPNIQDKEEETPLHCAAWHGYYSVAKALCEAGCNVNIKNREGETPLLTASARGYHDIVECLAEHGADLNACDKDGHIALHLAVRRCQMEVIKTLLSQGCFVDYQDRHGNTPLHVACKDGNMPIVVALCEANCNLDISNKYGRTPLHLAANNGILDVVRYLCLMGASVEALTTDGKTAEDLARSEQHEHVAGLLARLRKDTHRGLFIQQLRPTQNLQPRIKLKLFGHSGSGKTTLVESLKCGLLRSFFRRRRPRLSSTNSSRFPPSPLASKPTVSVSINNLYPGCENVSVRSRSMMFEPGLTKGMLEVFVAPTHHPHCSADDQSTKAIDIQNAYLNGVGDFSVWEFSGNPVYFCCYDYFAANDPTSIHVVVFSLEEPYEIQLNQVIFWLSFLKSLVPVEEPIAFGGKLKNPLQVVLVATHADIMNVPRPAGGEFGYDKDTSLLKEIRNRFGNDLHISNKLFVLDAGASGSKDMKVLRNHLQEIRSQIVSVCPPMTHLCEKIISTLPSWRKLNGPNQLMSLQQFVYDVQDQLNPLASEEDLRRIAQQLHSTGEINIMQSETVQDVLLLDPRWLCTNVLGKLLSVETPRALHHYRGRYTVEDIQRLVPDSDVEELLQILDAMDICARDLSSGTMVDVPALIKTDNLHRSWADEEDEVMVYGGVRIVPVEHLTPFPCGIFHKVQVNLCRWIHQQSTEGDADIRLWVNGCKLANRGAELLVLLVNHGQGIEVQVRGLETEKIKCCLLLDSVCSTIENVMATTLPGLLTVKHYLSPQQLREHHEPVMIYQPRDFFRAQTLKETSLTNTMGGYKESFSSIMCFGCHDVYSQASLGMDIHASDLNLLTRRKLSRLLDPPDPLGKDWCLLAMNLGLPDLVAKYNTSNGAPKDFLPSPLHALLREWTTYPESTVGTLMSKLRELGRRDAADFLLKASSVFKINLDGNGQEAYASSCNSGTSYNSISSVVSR

Row | SMILES | inhibition at 0.1 µM ([1]; compound at 100 nM) | inhibition at 1 µM [1] | inhibition at 0.1 µM ([2]; compound at 100 nM) | inhibition at 1 µM [2] | inhibition at 0.1 µM ([3]; compound at 100 nM) | inhibition at 1 µM [3] | inhibition at 0.1 µM ([4]; compound at 100 nM) | inhibition at 1 µM [4] | inhibition at 0.1 µM ([5]; compound at 100 nM) | inhibition at 1 µM [5] | inhibition at 0.1 µM ([6]; compound at 100 nM) | inhibition at 1 µM [6] | GI50 ([7]; Table 4; ± S.D., n = 2; read-out: IC50, 2YF-YVMA/3wt + NRG) | GI50 ([7]; read-out: IC50, 2YF-YVMA/3wt + NRG; Table 4; ± S.D., n = 2)
1 | COc1ccc(-c2ccco2)cc1Nc1ncnc2[nH]nc(-c3ccco3)c12 [compound 2, 3-(furan-2-yl)-N-(5-(furan-2-yl)-2-methoxyphenyl)-1H-pyrazolo[3,4-d]pyrimidin-4-amine] | 1.53% | 2.98% | 0.155% | 1.16% | 1.92% | 2.91% | 27.3% | 71.3% | -0.52% | 1.43% | 3.45% | 24.1% |  | 
2 | COc1ccc(-c2ccoc2)cc1Nc1ncnc2[nH]cc(-c3cc[nH]n3)c12 [compound 3, N-(5-(furan-3-yl)-2-methoxyphenyl)-5-(1H-pyrazol-3-yl)-7H-pyrrolo[2,3-d]pyrimidin-4-amine] |  | -9% |  | 16% |  | 8% |  | 74% |  | -1% |  | 11% | 11.4 ± 0.1 nM | 
3 | CS(=O)(=O)CCNCc1ccc(-c2ccc3ncnc(Nc4ccc(OCc5cccc(F)c5)c(Cl)c4)c3c2)o1 [lapatinib] |  |  |  |  |  |  |  |  |  |  |  |  |  | > 10000 nM
